One experiment concerns the target T1, SIK2 (Homo sapiens, UniProt Q9H0K1).
T1 construct: purchased ThermoFisher Scientific PV4792
The experiment is described as follows: biochemical. To be noted: 33P radioactive SIK kinase assay, AMARA peptide, 10 μM ATP. In outline:
(§1)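 Read-out: ^33P incorporated into AMARA peptide, counted on filter plates, taken as kinase activity. Reactions start on addition of labeled/unlabeled ATP to enzyme plus substrate and end with phosphoric acid. Controls: 1% DMSO (negative) and 10 μM staurosporine (positive), final.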

The target in the next experiment is T2, SIK3 (Homo sapiens, UniProt Q9Y2K2).
T2 construct: purchased SignalChem S12-11G-100
The experiment is described as follows: biochemical. In outline:
as §1

The target in another experiment is T3, SIK1 (Homo sapiens, UniProt P57059).
T3 construct: purchased Carna Biosciences 02-131
The experiment is described as follows: biochemical. The note with it: 33P radioactive SIK kinase assay, AMARA peptide, 10 μM ATP; read-out: SIK1 IC50. In outline:
as §1

The subject of experiment [1] is LPS-induced TNFα secretion in monocyte-derived macrophages (MdM). As to the kind of experiment: MdM assay: LPS-triggered TNFα (ELISA). Format: cell-based, human. The note with it: Homo sapiens, Macrophage, LPS-triggered TNFα inhibition. Here is the method: This assay evaluates illustrative compounds of the invention for their inhibition of LPS-induced TNFα and LPS triggered IL-10 secretion in monocyte-derived macrophages.
PBMCs are isolated from human blood samples (buffycoats). The buffy coat is aseptically transferred into a 50 mL Falcon tube, and diluted 1/2 in PBS. Falcon tubes are filled with 20 mL Lymphoprep™, on top of which 25 mL of the buffy coat is carefully added, tubes are centrifuged for 35 min at 400 g in temperature controlled centrifuge, without brake, at 25° C. PBMCs are aspirated from the white interface layer between sample and Lymphoprep™. PBMCs are washed five times in PBS.
PBMCs are centrifuged at 300×g for 10 min and resuspended at a density of 1.0E07 cells/80 μL Miltenyi buffer (PBS, pH 7.4, 1% FBS, 2 mM EDTA).
Starting from this point of the protocol all steps are performed on ice. 20 μL of CD14+ micro-beads are added per 1.0E07 cells, the tube is mixed and incubated for 15 min in the fridge at 4° C. Cell suspension volume is adjusted to total volume of 100 mL using Miltenyi buffer, mixed gently and subsequently centrifuged for 10 min at 300× g. Supernantant is discarded and cell pellet is resuspended in 12 mL of Miltenyi buffer.
Four LS columns are placed in the MACS Separator (magnet) from Miltenyi Biotec, and are prewet by rinsing with 3 mL of MACS buffer per column. Three mL of cell suspension is added onto the column (max 1*10^8 of labelled cells/column), and columns are subsequently washed 3 times with 3 mL of Miltenyi buffer.
The columns are removed from the magnets, and 5 mL of Miltenyi buffer are added to the column to flush out the CD14+ fraction by pushing the plunger into the column. The flushed fractions are collected in a fresh 50 mL Falcon and volume is adjusted to 30 mL using Miltenyi buffer, cells are centrifuged for 10 min at 300× g. The obtained cell pellet is resuspended in 10 mL RPMI w/o FBS, and cell density is determined using a hematologic analyser (Sysmex XS-500i).
On day 10, MdMs are triggered and compound is added.
A compound dilution plate is made in 100% DMSO by 3-fold dilution of 10 mM stock solution. An intermediate dilution plate (10× final concentration) is made by diluting the compound dilution plate 50-fold in RPMI medium.
Medium is carefully removed from cell plates using multichannel pipette, and replaced by 80 μL fresh medium. 10 μL of the 10× final concentration compound is added to the cells and incubated for 1 hour at 37° C. before addition of trigger. No trigger conditions/trigger conditions are spiked with equal final DMSO concentrations of 0.2% DMSO. 10 μL of 10×LPS (final conc. 200 ng/mL) solution are added to all wells except for the ‘no trigger wells’ where 10 μL medium is added. Supernatant is collected after 2 h (IL-10 determination) and after 20 h (TNFα determination) of LPS triggering.
The plate is then washed once with PBST (PBS+0.05% Tween20) and once with PBS followed by the addition of 100 μL of blocking buffer (1% Bovine Serum Albumin (BSA)-5% Sucrose) and plates are sealed and incubated for at least 4 h at RT. After washing the plate once with PBST and once with PBS, 40 μL of standard or sample are added (TNFα standard curve is prepared using a 1/2 serial dilution starting from 16000 pg/mL; dilutions are made in dilution buffer (PBS+1% BSA)). Plates are washed twice with PBST, and once with PBS, after which 35 μL of the detection antibody is added (final concentration 0.25 μg/mL diluted in dilution buffer) and plates are incubated for at least 2 h at RT. Plates are washed twice with PBST, and once with PBS, where after 35 μL of Strep-HRP conjugate (0.5 μg/mL final concentration diluted in dilution buffer) is added. Plates are incubated in the dark, at RT for at least 45 min but no longer than 1 hour. Plates are washed twice with PBST, and once with PBS.
Background: ELISA stands for enzyme-linked immunosorbent assay.

Molecules are shown by their SMILES.

T3 sequence (P57059 whole entry): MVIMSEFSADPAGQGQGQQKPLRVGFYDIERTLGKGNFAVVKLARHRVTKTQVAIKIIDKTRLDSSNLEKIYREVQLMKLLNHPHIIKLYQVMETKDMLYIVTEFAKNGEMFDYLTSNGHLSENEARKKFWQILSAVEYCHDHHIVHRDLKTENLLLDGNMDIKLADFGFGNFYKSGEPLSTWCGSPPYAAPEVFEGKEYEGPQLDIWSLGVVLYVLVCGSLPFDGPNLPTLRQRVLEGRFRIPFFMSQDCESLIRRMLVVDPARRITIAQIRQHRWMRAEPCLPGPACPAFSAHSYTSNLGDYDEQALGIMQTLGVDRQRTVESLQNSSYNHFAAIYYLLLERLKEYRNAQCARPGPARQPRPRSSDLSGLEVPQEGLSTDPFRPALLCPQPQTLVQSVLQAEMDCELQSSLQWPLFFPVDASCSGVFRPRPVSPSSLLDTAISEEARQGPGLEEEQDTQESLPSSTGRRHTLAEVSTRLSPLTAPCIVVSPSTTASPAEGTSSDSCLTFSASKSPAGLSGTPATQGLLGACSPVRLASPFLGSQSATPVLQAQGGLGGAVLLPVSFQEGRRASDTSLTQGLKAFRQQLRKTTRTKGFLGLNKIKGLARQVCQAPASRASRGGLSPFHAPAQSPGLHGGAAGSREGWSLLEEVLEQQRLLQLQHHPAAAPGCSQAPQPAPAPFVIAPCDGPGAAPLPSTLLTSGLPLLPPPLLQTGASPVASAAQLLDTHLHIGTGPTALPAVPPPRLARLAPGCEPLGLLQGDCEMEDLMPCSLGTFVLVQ
T2 sequence (Q9Y2K2 whole entry): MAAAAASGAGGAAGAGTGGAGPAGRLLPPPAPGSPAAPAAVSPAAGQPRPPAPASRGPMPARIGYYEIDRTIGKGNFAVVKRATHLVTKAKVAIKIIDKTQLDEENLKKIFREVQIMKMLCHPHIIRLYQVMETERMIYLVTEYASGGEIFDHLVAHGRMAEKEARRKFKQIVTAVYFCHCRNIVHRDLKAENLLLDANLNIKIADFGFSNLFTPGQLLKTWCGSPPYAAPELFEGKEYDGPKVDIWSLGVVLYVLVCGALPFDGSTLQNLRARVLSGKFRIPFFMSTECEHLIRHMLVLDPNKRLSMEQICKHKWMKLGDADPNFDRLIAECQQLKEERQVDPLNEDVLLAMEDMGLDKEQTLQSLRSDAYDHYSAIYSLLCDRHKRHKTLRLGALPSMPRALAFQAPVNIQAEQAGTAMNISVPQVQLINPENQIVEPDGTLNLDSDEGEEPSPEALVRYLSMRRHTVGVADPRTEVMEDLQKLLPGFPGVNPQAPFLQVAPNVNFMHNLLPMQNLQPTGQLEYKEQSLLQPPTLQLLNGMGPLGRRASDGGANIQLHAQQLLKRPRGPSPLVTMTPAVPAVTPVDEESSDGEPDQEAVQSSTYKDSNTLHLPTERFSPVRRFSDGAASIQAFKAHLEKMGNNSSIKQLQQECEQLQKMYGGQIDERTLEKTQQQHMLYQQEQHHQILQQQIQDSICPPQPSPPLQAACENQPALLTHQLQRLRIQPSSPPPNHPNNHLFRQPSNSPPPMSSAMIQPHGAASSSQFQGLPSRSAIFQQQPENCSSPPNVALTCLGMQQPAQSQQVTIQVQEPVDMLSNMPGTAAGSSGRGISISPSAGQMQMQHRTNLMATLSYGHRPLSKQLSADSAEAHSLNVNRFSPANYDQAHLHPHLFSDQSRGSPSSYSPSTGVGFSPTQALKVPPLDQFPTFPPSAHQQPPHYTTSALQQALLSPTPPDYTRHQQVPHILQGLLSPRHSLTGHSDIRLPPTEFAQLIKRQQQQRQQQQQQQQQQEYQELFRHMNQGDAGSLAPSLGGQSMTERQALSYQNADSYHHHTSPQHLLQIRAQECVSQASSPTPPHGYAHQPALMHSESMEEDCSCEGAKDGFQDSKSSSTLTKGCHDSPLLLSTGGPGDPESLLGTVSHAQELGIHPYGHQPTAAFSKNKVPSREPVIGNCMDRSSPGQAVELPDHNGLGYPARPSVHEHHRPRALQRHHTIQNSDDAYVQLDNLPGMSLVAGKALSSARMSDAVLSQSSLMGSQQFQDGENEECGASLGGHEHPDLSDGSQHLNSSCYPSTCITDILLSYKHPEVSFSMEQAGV
T1 sequence (Q9H0K1 whole entry): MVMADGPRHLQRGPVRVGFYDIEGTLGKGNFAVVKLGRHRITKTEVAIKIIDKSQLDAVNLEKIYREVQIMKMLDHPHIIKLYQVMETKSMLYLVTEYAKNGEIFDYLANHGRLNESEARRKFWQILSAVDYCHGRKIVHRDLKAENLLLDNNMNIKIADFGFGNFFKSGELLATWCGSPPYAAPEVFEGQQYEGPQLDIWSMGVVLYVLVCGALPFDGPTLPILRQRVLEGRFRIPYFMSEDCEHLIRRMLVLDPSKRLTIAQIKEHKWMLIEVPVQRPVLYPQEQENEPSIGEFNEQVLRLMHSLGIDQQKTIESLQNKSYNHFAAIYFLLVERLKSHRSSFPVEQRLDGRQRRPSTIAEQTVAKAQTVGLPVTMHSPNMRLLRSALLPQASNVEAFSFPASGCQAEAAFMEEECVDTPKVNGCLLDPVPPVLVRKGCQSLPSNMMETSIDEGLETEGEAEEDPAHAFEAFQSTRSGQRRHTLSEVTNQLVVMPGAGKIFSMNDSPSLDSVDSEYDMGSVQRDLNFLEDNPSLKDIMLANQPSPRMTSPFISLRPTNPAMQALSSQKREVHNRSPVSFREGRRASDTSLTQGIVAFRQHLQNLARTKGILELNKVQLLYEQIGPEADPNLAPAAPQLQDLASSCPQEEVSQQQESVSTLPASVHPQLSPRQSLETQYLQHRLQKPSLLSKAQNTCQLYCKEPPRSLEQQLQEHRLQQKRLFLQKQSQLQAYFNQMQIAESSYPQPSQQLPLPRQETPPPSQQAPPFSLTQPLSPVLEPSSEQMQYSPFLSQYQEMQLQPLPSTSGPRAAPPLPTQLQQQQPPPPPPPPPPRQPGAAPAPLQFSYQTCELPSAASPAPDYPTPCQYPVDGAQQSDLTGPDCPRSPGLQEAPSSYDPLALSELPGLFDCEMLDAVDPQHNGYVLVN

Take `COc1cc(-n2cnc3cc(-c4cnn(C)c4)ccc32)cc(OC)c1C(=O)NC1CCCC[C@H]1N` (stereo in doubt) [compound 139, N-[(1R,2R)-2-aminocyclohexyl]-2,6-dimethoxy-4-[5-(1-methylpyrazol-4-yl)benzimidazol-1-yl]benzamide]: the IC50 on SIK2, against SIK3 and on SIK1 was 0.01 to 10 nM in each case. In addition, the concentration for a half-maximal effect (EC50) (usually the midpoint of the concentration-response curve) in experiment [1] fell in the range of 1000 to 5000 nM.
On to `COc1cc(-c2cnn3cc(-c4cnn(C)c4)cnc23)cc(OC)c1C(=O)NCC(F)(F)F` [Cpd 52, 2,6-dimethoxy-4-[6-(1-methylpyrazol-4-yl)pyrazolo[1,5-a]pyrimidin-3-yl]-N-(2,2,2-trifluoroethyl)benzamide], for which the IC50 (as a rule, the midpoint of a concentration-inhibition curve) at SIK2 fell in the range of 0.01 to 10 nM; against SIK3, 10 to 100 nM; at SIK1, 10 to 100 nM. The molecule also yielded an EC50 in experiment [1] of 100 to 1000 nM.
As for `COc1cc(-n2cnc3cc(-c4cnn(CC#N)c4)ccc32)cc(OC(F)F)c1C(=O)NC1CC1` [Cpd 55, 4-[5-[1-(cyanomethyl)pyrazol-4-yl]benzimidazol-1-yl]-N-cyclopropyl-2-(difluoromethoxy)-6-methoxy-benzamide], the IC50 at SIK2, at SIK3 and on SIK1 was 0.01 to 10 nM each time. Also, the EC50 in experiment [1] lay in the range of 0.1 to 100 nM.
Turning to `COc1cc(-n2cnc3cc(-c4noc(C)n4)ccc32)cc(OC)c1C(=O)NCC(F)(F)F` [Cpd 126, 2,6-dimethoxy-4-[5-(5-methyl-1,2,4-oxadiazol-3-yl)benzimidazol-1-yl]-N-(2,2,2-trifluoroethyl)benzamide], the IC50 on SIK2, against SIK3 and on SIK1 was over 500 nM in each case. Moreover, the concentration giving a half-maximal response (EC50) in experiment [1] is 1000 to 5000 nM.
For `COc1cc(-n2cnc3cc(-c4nnc(C)[nH]4)ccc32)cc(OC)c1C(=O)NCC(F)(F)F` [Cpd 127, 2,6-dimethoxy-4-[5-(5-methyl-4H-1,2,4-triazol-3-yl)benzimidazol-1-yl]-N-(2,2,2-trifluoroethyl)benzamide], the figures for the IC50 at SIK2, against SIK3 and on SIK1 were 100 to 500 nM, 100 to 500 nM and over 500 nM, respectively. This molecule came in with an EC50 in experiment [1] of over 5000 nM.
In the case of `COc1cc(-n2cnc3cc(-c4cn(C)cn4)ccc32)cc(OC)c1C(=O)NCC(F)(F)F` [Cpd 137, 2,6-dimethoxy-4-[5-(1-methylimidazol-4-yl)benzimidazol-1-yl]-N-(2.2,2-trifluoroethyl)benzamide], the IC50 on SIK2 lay in the range of 0.01 to 10 nM; against SIK3 it was 10 to 100 nM; at SIK1, 10 to 100 nM. The molecule further had an EC50 in experiment [1] of 100 to 1000 nM.
Turning to `COc1cc(-n2cnc3cc(-n4cnc(C)c4)ccc32)cc(OC)c1C(=O)NCC(F)(F)F` [Cpd 155, 2.6-dimethoxy-4-[5-(4-methylimidazol-1-yl)benzimidazol-1-yl]-N-(2,2,2-trifluoroethyl)benzamide], the IC50 at SIK2 lay in the range of 10 to 100 nM; against SIK3 it was 10 to 100 nM; on SIK1, 100 to 500 nM. The molecule also came in with an EC50 in experiment [1] of 1000 to 5000 nM.
As for `COc1cc(-c2cnc3cc(-c4cnn(CC(=O)OC(C)(C)C)c4)ccn23)cc(OC)c1C(=O)NCC(F)(F)F` [Cpd 229, tert-butyl 2-[4-[3-[3,5-dimethoxy-4-(2,2,2-trifluoroethyl-carbamoyl)phenyl]imidazo[1,2-a]pyridin-7-yl]pyrazol-1-yl]acetate], the IC50 at SIK2, against SIK3 and on SIK1 was 0.01 to 10 nM throughout. The molecule further returned an EC50 in experiment [1] of 100 to 1000 nM.
On to `COc1cc(-c2cnc3cc(-c4cnn(CC(=O)OC(C)C)c4)ccn23)cc(OC)c1C(=O)NCC(F)(F)F` [Cpd 231, isopropyl 2-[4-[3-[3,5-dimethoxy-4-(2,2,2-trifluoroethyl-carbamoyl)phenyl]imidazo[1,2-a]pyridin-7-yl]pyrazol-1-yl]acetate], for which the concentration for half-maximal inhibition (IC50) on SIK2, at SIK3 and on SIK1 was 0.01 to 10 nM each time. Also, in experiment [1], the EC50 is 0.1 to 100 nM.
Regarding `COc1cc(-c2cnc3cc(-c4cnn(C)c4)ccn23)cc(O)c1C(=O)NCC(F)(F)F` [Cpd 233, 2-hydroxy-6-methoxy-4-[7-(1-methylpyrazol-4-yl)imidazo[1,2-a]pvridin-3-yl]-N-(2,2,2-trifluoroethyl)benzamide], the IC50 at SIK2 was in the range of 0.01 to 10 nM; against SIK3, 0.01 to 10 nM; at SIK1, 10 to 100 nM. In experiment [1], this molecule displayed a concentration giving a half-maximal response (EC50) of 0.1 to 100 nM.
For the molecule `COc1cc(-c2cnc3cc(-c4cnn(CC(=O)OCCF)c4)ccn23)cc(OC)c1C(=O)NCC(F)(F)F` [Cpd 235, 2-fluoroethyl 2-[4-[3-[3,5-dimethoxy-4-(2,2,2-trifluoroethyl-carbamoyl)phenyl]imidazo[1,2-a]pyridin-7-yl]pyrazol-1-yl]acetate], the IC50 on SIK2, on SIK3 and at SIK1 was 0.01 to 10 nM each time. Moreover, in experiment [1], the EC50 fell in the range of 0.1 to 100 nM.
Turning to `COC(=O)Cn1cc(-c2ccn3c(-c4cc(OC)c(C(=O)NCC(F)(F)F)c(OC)c4)cnc3c2)cn1` [Cpd 236, methyl 2-[4-[3-[3,5-dimethoxy-4-(2,2,2-trifluoroethyl-carbamoyl)phenyl]imidazo[1,2-a]pyridin-7-yl]pyrazol-1-yl]acetate], the IC50 at SIK2, against SIK3 and on SIK1 was 0.01 to 10 nM each time. Also, in experiment [1], the EC50 lay in the range of 0.1 to 100 nM.
Consider `COc1cc(-c2cnc3cc(-c4cnn(CC(=O)OC5CCOC5)c4)ccn23)cc(OC)c1C(=O)NCC(F)(F)F` (stereo not shown) [Cpd 237, tetrahydrofuran-3-yl 2-[4-[3-[3,5-dimethoxy-4-(2,2,2-trifluoroethyl-carbamoyl)phenyl]imidazo[1,2-a]pyridin-7-yl]pyrazol-1-yl]acetate], for which the IC50 at SIK2, on SIK3 and on SIK1 was 0.01 to 10 nM throughout. Also, the 50% effective concentration (EC50) in experiment [1] lay in the range of 100 to 1000 nM.
Regarding `COc1cc(-c2cnc3cc(-c4cnn(CC(=O)OCC5CCC5)c4)ccn23)cc(OC)c1C(=O)NCC(F)(F)F` [Cpd 238, cyclobutylmethyl 2-[4-[3-[3,5-dimethoxy-4-(2,2,2-trifluoroethyl-carbamoyl)phenyl]imidazo[1,2-a]pyridin-7-yl]pyrazol-1-yl]acetate], the IC50 on SIK2, against SIK3 and at SIK1 was 0.01 to 10 nM throughout. In addition, the EC50 in experiment [1] is 0.1 to 100 nM.
In the case of `COc1cc(-c2cnc3cc(-c4cnn(C(C)C(=O)O)c4)ccn23)cc(OC)c1C(=O)NCC(F)(F)F` (stereo not shown) [Cpd 254, 2-[4-[3-[3,5-dimethoxy-4-(2,2,2-trifluoroethyl-carbamoyl)phenyl]imidazo[1,2-a]pyridin-7-yl]pyrazol-1-yl]propanoic acid], the IC50 at SIK2, against SIK3 and on SIK1 was 0.01 to 10 nM throughout. In experiment [1], this molecule showed an EC50 of over 5000 nM.
For the molecule `COc1cc(-c2cnc3cc(-c4cnn(CCCC(=O)O)c4)ccn23)cc(OC)c1C(=O)NCC(F)(F)F` [Cpd 255, 4-[4-[3-[3,5-dimethoxy-4-(2,2,2-trifluoroethyl-carbamoyl)phenyl]imidazo[1,2-a]pyridin-7-yl]pyrazol-1-yl]butanoic acid], the half-inhibitory concentration (IC50) on SIK2, on SIK3 and at SIK1 was 0.01 to 10 nM throughout. For the same molecule, the EC50 in experiment [1] lay in the range of 1000 to 5000 nM.
